Patent publication US20250206773A1, “FORMS AND COMPOSITIONS OF SODIUM CHENODEOXYCHOLATE” (Syntis Bio, Inc., priority 2022, published 2025)
Where two headings read alike, the source gives them in different places.

Experiments:
[1] = Dynamic vapor sorption (DVS) hygroscopicity; format: physicochemical; conditions: 25° C.
Procedure: DVS measurements were performed with a SMS—DVS Intrinsic. The sample size was about 50 mg, accurately weighed. The measurement was performed at 25° C., the relative humidity (RH) range investigated was 40-90-0-90% RH with 10% RH steps. After each RH change, the mass of the sample was allowed to stabilize (waiting time 10 to 60 minutes, stabilization criterion ≤0.002 g for 10 minutes). The hygroscopicity of the sample was calculated as follows: [formula] • where: • W1: weight of sample at the start of the experiment (25° C. and 40% RH) • W2: weight of sample at 25° C. and 80% RH in the first sorption cycle High Pressure Liquid Chromatography (HPLC)

[2] = Polymorph screening: slurry (XRPD, HPLC of recovered solids); format: physicochemical; conditions: slurry 7 days
Procedure: Around 15 mg of NaCDC Form B was weighted into HPLC vials, and the appropriate volume of solvent was added at RT. Slurries were aged for 7 days under stirring (500 rpm), at multiple temperatures: 5° C., 25-30° C., 40° C., and 50° C. All solids were air-dried on filter paper and then analyzed by XRPD. Depending on the results obtained by XRPD and material availability, some experiments were analyzed by HTPLC and TG/DSC.

[3] = Polymorph screening: solvent drop grinding; format: physicochemical; conditions: grinding 10 min. at RT
Procedure: Around 20 mg of NaCDC Form B was ground together with 10 μL aliquots of the corresponding solvent for 10 minutes at RT using an agate mortar with pestle. When total evaporation of the solvent was observed, another aliquot of 10 μL solvent was added and this procedure was repeated until experiment completion time. All solids were analyzed by XRPD. For the experiments where phase transformation was observed via XRPD, additional analyses of TG/DSC and/or HPLC were performed.

[4] = format: physicochemical
Procedure: HPLC analysis was carried out on an Agilent 1260 Infinity chromatograph, using a Hichrom C18 column 100×4.6 mm, 3.5 m, at 40° C. Method details were as follows: [table] Around 10 mg of NaCDC Form B was weighed into 1.6 mL HPLC vials. 3-5 mm PTFE-covered cylindrical magnetic stirring bars were added to the vials. […] The vials were visually inspected before each addition to check for the dissolution of the starting material, and the solvent addition was stopped when a complete dissolution was observed. The clear solutions were left to rest at RT. […] The experiments were held at each temperature for 1 h, and then they were visually inspected to see if dissolution occurred. At the end of the experimental time, the magnetic stirring bars were removed, and all slurries or solutions were dried at different temperatures depending on the boiling points of each solvent used (i.e., at 30° C., 20-21 mbar or 50° C., 21 mbar, for 21 hours; with the exception of experiments SASO7, SAS33, SAS34, SAS35, SAS36 and SAS45 which were dried at 50° C. for 43 hours). All the resulting solids were analyzed by XRPD. For several selected experiments, HPLC analysis was performed. The solids that gave new XRPD patterns were investigated by TGA/DSC. [table]

[5] = format: physicochemical; remark: listed apart in the source
Procedure: In-process stability of NaCDC Form B was evaluated under two conditions at reflux, as described in Table 1 below.

[6] = Exposure to moist air (RH 95%, room temperature), XRPD before/after; format: physicochemical
Procedure: FIG. 4 is a series of XRPD patterns, showing NaCDC Form A before (thick line) and after (thin line) 15 hours of exposure to RH 95% at room temperature. FIG. 8 is a series of XRPD patterns, showing NaCDC Form B before (thick line) and after (thin line) 15 hours of exposure to RH 95% at room temperature.

[7] = SL70, Methyl ethyl ketone (MEK), 50° C.
[8] = n-BuOH/water (6/1), azeotropic reflux for 24 h
[9] = n-BuOH/water (6/1), azeotropic reflux

## C[C@H](CCC(=O)[O-])[C@H]1CC[C@H]2[C@@H]3[C@H](O)C[C@@H]4C[C@H](O)CC[C@]4(C)[C@H]3CC[C@]12C.[Na+] [Form B, sodium chenodeoxycholate]
[1]
  hygroscopicity by DVS: slightly hygroscopic
[1]; 40% RH to 80% RH
  weight change in the first sorption cycle (DVS): 0.8%
[2]; SL01, Ethanol (EtOH), 5° C.
  HPLC purity (%) at 212 nm: 89.70%
[2]; SL05, Methylcyclohexane, 5° C.
  XRPD: SM, P.O.
[2]; SL06, n-Heptane, 5° C.
  XRPD: SM, l.c.
[2]; SL13, tert-Butyl methyl ether, 5° C.
  HPLC purity (%) at 212 nm: 87.21%
[2]; SL15, Tetrahydrofuran (THF), 5° C.
  XRPD: SM, l.c.
[2]; SL19, Acetonitrile (MeCN), 5° C.
  XRPD: SM, l.c.
[2]; SL22, EtOH:MeCN (1:1 v/v), 5° C.
  HPLC purity (%) at 212 nm: 91.93%
[2]; SL23, EtOH:n-Heptane (1:1 v/v), 5° C.
  HPLC purity (%) at 212 nm: 93.64%
[2]; SL26, Ethanol (EtOH), 25-30° C.
  HPLC purity (%) at 212 nm: 92.34%
[2]; SL27, 2-Propanol (2-PrOH), 25-30° C.
  HPLC purity (%) at 212 nm: 88.33%
[2]; SL28, 2-Methyl-1-propanol (Isobutanol), 25-30° C.
  XRPD: l.c., SM
[2]; SL29, 2-Butanol, 25-30° C.
  XRPD: SM, l.c.
[2]; SL31, Methylcyclohexane, 25-30° C., solvent almost evap./consumed on the 7th day
  XRPD: SM, l.c.
[2]; SL39, tert-Butyl methyl ether, 25-30° C.
  HPLC purity (%) at 212 nm: 84.05%
[2]; SL41, Tetrahydrofuran (THF), 25-30° C.
  XRPD: SM, l.c.
[2]; SL48, EtOH:MeCN (1:1 v/v), 25-30° C.
  HPLC purity (%) at 212 nm: 83.87%
[2]; SL49, EtOH:n-Heptane (1:1 v/v), 25-30° C.
  HPLC purity (%) at 212 nm: 93.06%
[2]; SL52, Ethanol (EtOH), 40° C.
  HPLC purity (%) at 212 nm: 87.98%
[2]; SL56, 2-Propanol (2-PrOH), 50° C.
  HPLC purity (%) at 212 nm: 84.92%
[2]; SL60, n-Heptane, 50° C., solvent almost evap./consumed on 7th day
  XRPD: l.c., SM
[2]; SL68, Tetrahydrofuran (THF), 50° C.
  HPLC purity (%) at 212 nm: 78.16%
[2]; [7]
  HPLC purity (%) at 212 nm: 90.88%
  XRPD: SM, h.c.
[2]; SL74, EtOH:MeCN (1:1 v/v), 50° C.
  HPLC purity (%) at 212 nm: 78.36%
[2]; SL75, EtOH:n-Heptane (1:1 v/v), 50° C.
  HPLC purity (%) at 212 nm: 85.10%
[3]; SDGR01, Ethanol (EtOH) 140 μL
  HPLC purity (%) at 212 nm: 83.36%
[3]; SDGR02, 2-Propanol 80 μL
  HPLC purity (%) at 212 nm: 81.26%
[3]; SDGR03, 2,2,2-Trifluoroethanol (TFE) 90 μL
  HPLC purity (%) at 212 nm: 90.87%
[3]; SDGR04, Diisopropyl ether 160 μL
  XRPD: SM, l.c.
[3]; SDGR05, MeOH:EtOAc (1:1 v/v) 260 μL
  HPLC purity (%) at 212 nm: 82.04%
[3]; SDGR06, MeOH:Acetone (1:1 v/v) 240 μL
  HPLC purity (%) at 212 nm: 85.56%
[3]; SDGR07, EtOH:MeCN (1:1 v/v) 190 μL
  HPLC purity (%) at 212 nm: 86.54%
[3]; SDGR08, EtOH:n-Heptane (1:1 v/v) 220 μL
  HPLC purity (%) at 212 nm: 90.36%
[4]; SAS01, Water (H2O), solid after evaporation A (30° C., 20-21 mbar, 21 hours)
  HPLC (%) 212 nm: 84.9%
[4]; SAS03, Ethanol (EtOH), solid after evaporation A (30° C., 21 hours)
  HPLC (%) 212 nm: 71.5%
[4]; SAS04, 2-Propanol (2-PrOH), solid after evaporation A (30° C., 21 hours)
  HPLC (%) 212 nm: 96.6%
[4]; SAS05, 2-Methyl-1-propanol (Isobutanol), solid after evaporation A (30° C., 21 hours)
  HPLC (%) 212 nm: 96.5%
[4]; SAS06, 2-Butanol, solid after evaporation A (30° C., 21 hours)
  HPLC (%) 212 nm: 97.5%
[4]; SAS07, 2-Ethoxyethanol, solid after evaporation C (50° C., 43 hours)
  HPLC (%) 212 nm: 38.0%
[4]; SAS08, 2,2,2-Trifluoroethanol (TFE), solid after evaporation A (30° C., 21 hours)
  HPLC (%) 212 nm: 91.3%
[4]; SAS09, 3-Methyl-1-butanol (Isoamyl alcohol), solid after evaporation B (50° C., 21 hours)
  HPLC (%) 212 nm: 48.1%
[4]; SAS20, n-Butyl acetate, solid after evaporation B (50° C., 21 hours)
  HPLC (%) 212 nm: 96.3%
[4]; SAS24, Diisopropyl ether, solid after evaporation A (30° C., 21 hours)
  HPLC (%) 212 nm: 94.4%
[4]; SAS33, Benzonitrile, solid after evaporation C (50° C., 43 hours)
  HPLC (%) 212 nm: 68.0%
[4]; SAS34, N,N-Dimethyl-acetamide, solid after evaporation C (50° C., 43 hours)
  HPLC (%) 212 nm: 1.2%
[4]; SAS35, N-Methyl-pyrrolidone, gel after evaporation C (50° C., 43 hours)
  HPLC (%) 212 nm: 1.5%
[4]; SAS36, Dimethyl sulfoxide (DMSO), solid after evaporation C (50° C., 43 hours)
  HPLC (%) 212 nm: 32.4%
[4]; SAS39, EtOH:MeCN (1:1 v/v), solid after evaporation A (30° C., 21 hours)
  HPLC (%) 212 nm: 80.1%
[4]; SAS40, H2O:THF (1:1 v/v), solid after evaporation A (30° C., 21 hours)
  HPLC (%) 212 nm: 77.5%
[4]; SAS41, H2O:EtOH (1:1 v/v), solid after evaporation A (30° C., 21 hours)
  HPLC (%) 212 nm: 90.7%
[4]; SAS42, H2O:2-PrOH (1:1 v/v), solid after evaporation A (30° C., 21 hours)
  HPLC (%) 212 nm: 92.0%
[4]; SAS43, H2O:MeCN (1:1 v/v), solid after evaporation A (30° C., 21 hours)
  HPLC (%) 212 nm: 91.1%
[4]; SAS44, H2O:Acetone (1:1 v/v), solid after evaporation A (30° C., 21 hours)
  HPLC (%) 212 nm: 93.7%
[4]; SAS45, H2O:DMSO (1:1 v/v), solid after evaporation C (50° C., 43 hours)
  HPLC (%) 212 nm: 30.2%
[4]; SAS46, MeOH:EtOAc (1:1 v/v), solid after evaporation A (30° C., 21 hours)
  HPLC (%) 212 nm: 89.0%
[4]; SAS47, MeOH:Acetone (1:1 v/v), solid after evaporation A (30° C., 21 hours)
  HPLC (%) 212 nm: 91.0%
[4]; SAS48, EtOH:n-Heptane (1:1 v/v), solid after evaporation A (30° C., 21 hours)
  HPLC (%) 212 nm: 90.1%
[4]; experiments with 2-ethoxyethanol, 3-methyl-1-butanol, benzonitrile, DMAc, NMP, DMSO, H2O:DMSO (1:1 v/v)
  HPLC purity of recovered solids (dropped from 99.2%): 1.2-68.0%
[5]; n-BuOH, reflux for 24 h
  HPLC Purity % CDC (t24): 99.9%
  HPLC Purity % Cholic acid (t24): 0.05%
[5]; n-BuOH, reflux
  HPLC Purity % CDC (t0): 99.9%
  HPLC Purity % Cholic acid (t0): 0.05%
[5]; [8]
  HPLC Purity % CDC (t24): 99.92%
  HPLC Purity % Cholic acid (t24): 0.05%
[5]; [9]
  HPLC Purity % CDC (t0): 99.92%
  HPLC Purity % Cholic acid (t0): 0.05%
[6]; 15-20 hours at 95% humidity
  effect of exposure to moist air (XRPD): eventual amorphization
[6]; 95% humidity
  loss of crystallinity on moist air exposure compared with Form A: markedly slower
